Assay results reported in article PMC9414910, “Optimized ^68Ga-Labeled Urea-Based PSMA-Targeted PET Tracers for Prostate Cancer” (Pharmaceuticals, 2022).

Assays:
[1] = Partition coefficient, octanol–water system; type: physicochemical; conditions: octanol–water (v/v = 1:1), n = 3
Experimental: The partition coefficient of each novel radiotracer was determined using an octanol–water system (v/v = 1:1). The in vitro stability was determined using two systems (PBS and 5% BSA). The Ki value was measured by the NAALADase assay. The 22Rv1 and PC-3 cell lines were used for the cell-binding study and establishment of the tumor-bearing model (detailed information is shown in the Supplementary Materials).
PBS) and reported as log p ± SD. […]

[2] = system: 22Rv1 tumor-bearing mice; experiment: Biodistribution in 22Rv1 tumor-bearing mice; conditions: for Uptake Blood, Mean / Uptake Bone, Mean / Uptake Heart, Mean / Uptake Kidney, Mean / Uptake Liver, Mean / Uptake Lung, Mean / Uptake Muscle, Mean / Uptake Spleen, Mean / Uptake Tumor (22Rv1), Mean: 0.74 MBq, n = 3; for Clearance profile in the kidneys: within 60 min p.i.
Experimental: (§1) The animal studies were approved by the institutional animal care and use committee of the Chinese PLA General Hospital. Healthy male ICR mice were injected with either a novel radiotracer (37 MBq in 150 μL) or saline (150 μL) for the radiotoxicity evaluation. […] Biodistribution and micro-PET studies were performed on 22Rv1 and PC-3 xenograft models, and 2-PMPA was used as the PSMA blocker (all details are shown in the Supplementary Materials).
BALB/c nude mice (male, 4-6 weeks) were inoculated subcutaneously with […]
100 mm3, the mice underwent biodistribution study and Micro-PET imaging.
The 22Rv1 tumor-bearing mice were injected with each novel radiotracer or […]
[…] Mice were sacrificed at different time points p.i. (10 min, 30 min, 60 min), tumors and interested organs were harvested, weighed and measured by a γ-counter, the results were expressed as the percentage of injected dose per gram (ID%/g).
Table S1. Uptake values for ex vivo tissues of [ 68Ga]Ga-PSMA-Q (0.74 MBq/mice) in 22Rv1 tumor-bearing mice (10, 30 and 60 min p.i., n = 3/time point).

[3] = system: 22Rv1 tumors; experiment: Micro-PET imaging in 22Rv1 tumor-bearing mice; type: in vivo; conditions: 60 min p.i.; for SUVmax of tumor: 22Rv1 tumor, 7.4 MBq
Experimental: as §1
Table S9. Tumor-to-mu scle (T/M) ratio and tumor- to-kidney (T/K) rati o of radiotracers at 60 min p.i.
The Mice bearing 22Rv1 and PC-3 (n = 3/group) xenograft tumors were […]
Co-injection with 2-PMPA (50 μ g) and each novel tracer (7.4 MBq in 150 μL) was used for blocking. Then the mice were anesthetized with 3% (v/v) isoflurane and underwent Micro-PET scans with continuous 1% (v/v) isoflurane. The images were acquired at 60 min p.i.. In comparison, […]
into another group of mice (n = 3), and Micro-PET schedule was performed as […]
Imaging was performed on a Super Nova PET/CT scanner using a 100-mm-transaxial field of view for PET and 110-mm for CT.
Three-dimensional ordered-subsets expectation maximization reconstruction

[4] = system: 22Rv1 cells (mild PSMA+); experiment: Cell uptake / binding in 22Rv1 cells; type: cell-based, human; conditions: 60 min incubation, 37 °C
Text: Cell lines were kindly provided by the stem cell bank of the Chinese Academy of Sciences. The human prostate cancer epithelial cell lines 22Rv1 (mild PSMA+) and PC-3 (with no PSMA receptor) were used to evaluate the specific cell-binding affinity of the radiotracers, and the results were expressed as percentages of injected activity, IA%/10^6.
Cell Lines and Culture Condition
Cell lines were kindly provided by the stem cell bank, the Chinese Academy of Sciences. The human prostate cancer cell lines 22Rv1 ( mild PSMA positive) and PC3 (PSMA negative) were cultured in RPMI 1640 medium or F12K medium (CORNING, America), supplemented with 10% Fetal Bovine Serum
(GIBCO, The Netherlands) and 1% penicillin-streptomycin (CORNING, America) in a humidified incubator at 37 °C under 5% CO2. Each cell line was passaged when it was at around 80-90% confluence, and harvested using trypsin-ethylenediaminetetraacetic acid (trypsin-EDTA; 0.25% trypsin, 0.02% EDTA, all from KeyGEN BioTECH).
Cells were seeded separately in 24 well plates (1 x 10^5 cells in 1 mL medium/well) and incubated overnight, the medium was changed 2 h before the experiment. For the binding experiments, cells were incubated with novel […]
min, 30 min and 60 min (6 wells/time point). After incubation, the medium was removed and the cells were washed twice with ice-cold phosphate-buffered saline (0.5 mL). Finally, the cells were lysed by NaOH (0.5 M, 0.5 mL). Coincubation of 2-(phosphonomethyl) pentane-1,5-dioic acid […]
(2-PMPA) solution (2 μg/well) and each radiotracer for 60 min was conducted as the blocking experiment. The radioactivity of cells was measured by a γ-counter. The studies were performed in triplicate and the results were reported as the percentage injected activity (IA%/10^6 cells). […]

[5] = Blood pharmacokinetics in male ICR mice; type: in vivo; conditions: 7.4 MBq i.v., two-compartment model
Experimental: Injection of novel radiotracers or [68Ga]Ga-PSMA-617 or [68Ga]Ga-PSMA-11 […]
mice (5 mice/group), and the blood sample (5 μL) of each mouse was collected by cutting down the tail end at different time points post injection. The radioactivity of blood samples were measured by a γ-counter and the pharmacokinetics data was calculated using the WinNonlin software.
Figure S3. Time-activity curves of the blood samplesafter injection of 7.4 MBq of [68Ga]Ga-PSMA-4PY (A), [68Ga]Ga-PSMA-Q (B),[68Ga]Ga-PSMA-P (C), [68Ga]Ga-PSMA-617 (D), [68Ga]Ga-PSMA-11 (E), [68Ga]Ga-PSMA-Q-1 (F), [68Ga]Ga-PSMA-Q-2 (G) and [68Ga]Ga-PSMA-Q-3 (H).
(1 picture or pasted object on this page, not shown here)

[6] = biodistribution, 22Rv1 tumor-bearing mice, 60 min p.i.

Compound | Log p pH = 7.4 [1] | Uptake Blood, Mean ([2]; 10 min p.i.) [ID%/g] | Uptake Bone, Mean ([2]; 10 min p.i.) [ID%/g] | Uptake Heart, Mean ([2]; 10 min p.i.) [ID%/g] | Uptake Kidney, Mean ([2]; 10 min p.i.) [ID%/g] | Uptake Liver, Mean ([2]; 10 min p.i.) [ID%/g] | Uptake Lung, Mean ([2]; 10 min p.i.) [ID%/g] | Uptake Muscle, Mean ([2]; 10 min p.i.) [ID%/g] | Uptake Spleen, Mean ([2]; 10 min p.i.) [ID%/g] | Uptake Tumor (22Rv1), Mean ([2]; 10 min p.i.) [ID%/g] | Uptake Blood, Mean ([2]; 30 min p.i.) [ID%/g] | Uptake Bone, Mean ([2]; 30 min p.i.) [ID%/g] | Uptake Heart, Mean ([2]; 30 min p.i.) [ID%/g] | Uptake Kidney, Mean ([2]; 30 min p.i.) [ID%/g] | Uptake Liver, Mean ([2]; 30 min p.i.) [ID%/g] | Uptake Lung, Mean ([2]; 30 min p.i.) [ID%/g] | Uptake Muscle, Mean ([2]; 30 min p.i.) [ID%/g] | Uptake Spleen, Mean ([2]; 30 min p.i.) [ID%/g] | Uptake Tumor (22Rv1), Mean ([2]; 30 min p.i.) [ID%/g] | Uptake Blood, Mean ([2]; 60 min p.i.) [ID%/g] | other results
O=C([O-])CN1CCN(CC(=O)[O-])CCN(CC(=O)NCc2ccc(C(=O)NC(Cc3cnc4ccccc4c3)C(=O)NCCCCC(NC(=O)NC(CCC(=O)O)C(=O)O)C(=O)O)cc2)CCN(CC(=O)O)CC1.[68Ga+3] (stereo not shown) [[^68Ga]Ga-PSMA-Q-3] | −2.99 ± 0.33 | 1.68 | 0.67 | 1.87 | 21.45 | 1.53 | 0.83 | 0.72 | 1.12 | 1.88 | 0.72 | 0.33 | 1.29 | 13.88 | 1.18 | 0.53 | 0.40 | 0.94 | 2.77 | 0.34 | Uptake Bone, Mean ([2]; 60 min p.i.): 0.23 ID%/g; Uptake Heart, Mean ([2]; 60 min p.i.): 1.11 ID%/g; Uptake Kidney, Mean ([2]; 60 min p.i.): 2.65 ID%/g; Uptake Lung, Mean ([2]; 60 min p.i.): 0.43 ID%/g; Uptake Muscle, Mean ([2]; 60 min p.i.): 0.19 ID%/g; Uptake Spleen, Mean ([2]; 60 min p.i.): 0.59 ID%/g; Uptake Tumor (22Rv1), Mean ([2]; 60 min p.i.): 3.31 ± 0.29 ID%/g; Uptake Tumor (22Rv1), Mean ([2]; 60 min p.i., listed as [68Ga]Ga-PSMA-Q-3): 3.31 ID%/g; Clearance profile in the kidneys [2]: washed out rapidly from the kidneys; SUVmax of tumor [3]: 0.88 ± 0.18; Uptake in 22Rv1 cells [4]: 3.31 ± 0.49 IA%/10^6; Elimination half-life [5]: 25.72 ± 1.87 min
O=C([O-])CN1CCN(CC(=O)[O-])CCN(CC(=O)NCC2CCC(C(=O)NC(Cc3ccc4ccccc4c3)C(=O)NCCCCC(NC(=O)NC(CCC(=O)O)C(=O)O)C(=O)O)CC2)CCN(CC(=O)O)CC1.[68Ga+3] (stereo not shown) [[^68Ga]Ga-PSMA-617, reference compound] | −2.54 ± 0.13 | 2.21 | 1.17 | 2.11 | 16.30 | 1.89 | 1.40 | 0.87 | 2.11 | 2.10 | 0.58 | 0.38 | 1.20 | 25.77 | 1.13 | 0.95 | 0.31 | 1.31 | 3.36 | 0.33 | Uptake Bone, Mean ([2]; 60 min p.i.): 0.29 ID%/g; Uptake Heart, Mean ([2]; 60 min p.i.): 0.10 ID%/g; Uptake Kidney, Mean ([2]; 60 min p.i.): 29.78 ID%/g; Uptake Liver, Mean ([2]; 60 min p.i.): 0.51 ID%/g; Uptake Lung, Mean ([2]; 60 min p.i.): 0.33 ID%/g; Uptake Muscle, Mean ([2]; 60 min p.i.): 0.15 ID%/g; Uptake Spleen, Mean ([2]; 60 min p.i.): 0.95 ID%/g; Uptake Tumor (22Rv1), Mean ([2]; 60 min p.i.): 4.27 ± 0.10 ID%/g; Uptake Tumor (22Rv1), Mean ([2]; 60 min p.i., listed as [68Ga]Ga-PSMA-617): 4.27 ID%/g; Tumor-to-kidney (T/K) ratio [2, 6]: 0.14 ± 0.01; Tumor-to-muscle (T/M) ratio [2, 6]: 28.43 ± 0.84; Clearance profile in the kidneys [2]: continuously accumulated in the kidneys; SUVmax of tumor [3]: 0.85 ± 0.14; Tumor-to-muscle ratio (micro-PET) ([3]; 22Rv1 tumor-bearing mice): 20.43 ± 1.06; Uptake in 22Rv1 cells [4]: 4.01 ± 0.42 IA%/10^6; Elimination half-life [5]: 28.46 ± 1.64 min
O=C([O-])CN1CCN(CC(=O)[O-])CCN(CC(=O)NCC2CCC(C(=O)NC(Cc3ccncc3)C(=O)NCCCCC(NC(=O)NC(CCC(=O)O)C(=O)O)C(=O)O)CC2)CCN(CC(=O)O)CC1.[68Ga+3] (stereo not shown) [[^68Ga]Ga-PSMA-4PY] | −3.49 ± 0.01 | 1.68 | 0.56 | 1.87 | 2.15 | 1.53 | 0.83 | 0.67 | 0.59 | 1.56 | 0.68 | 0.28 | 0.86 | 2.08 | 0.78 | 0.50 | 0.31 | 0.47 | 1.83 | 0.21 | Uptake Bone, Mean ([2]; 60 min p.i.): 0.21 ID%/g; Uptake Heart, Mean ([2]; 60 min p.i.): 0.58 ID%/g; Uptake Liver, Mean ([2]; 60 min p.i.): 0.47 ID%/g; Uptake Lung, Mean ([2]; 60 min p.i.): 0.25 ID%/g; Uptake Muscle, Mean ([2]; 60 min p.i.): 0.14 ID%/g; Uptake Spleen, Mean ([2]; 60 min p.i.): 0.33 ID%/g; Uptake Tumor (22Rv1), Mean ([2]; 60 min p.i.): 2.15 ID%/g; Uptake Tumor (22Rv1), Mean ([2]; 60 min p.i., listed as [^68Ga]Ga-PSMA-Q-4PY): 2.15 ± 0.46 ID%/g; Clearance profile in the kidneys [2]: remained relatively stable; SUVmax of tumor [3]: 0.69 ± 0.26; Uptake in 22Rv1 cells [4]: 3.01 ± 0.47 IA%/10^6; Elimination half-life [5]: 15.15 ± 0.32 min
